# Measured values taken from US12435044B2, “Pyridazinone herbicides and pyridazinone intermediates used to prepare a herbicide” (FMC Corporation, priority 2018, dated 2025).
# Experiments:
# Assay type in all cases: in vivo
# [1] = tested on: arrowleaf sida (Sida rhombifolia); experiment: Test E pre-/postemergence greenhouse test
# Description: (§1) Seeds of plant species selected from corn (Zea mays), soybean (Glycine max), velvetleaf (Abutilon theophrasti), lambsquarters (Chenopodium album), poinsettia, wild (Euphorbia heterophylla), pigweed, palmer (Amaranthus palmeri), waterhemp (common waterhemp, Amaranthus rudis), surinam grass (Brachiaria decumbens), crabgrass, large (Digitaria sanguinalis), crabgrass, Brazil (Digitaria horizontalis), panicum, fall (Panicum dichotomiflorum), foxtail, giant (Setaria faberii), foxtail, green (Setaria viridis), goosegrass (Eleusine indica), johnsongrass (Sorghum halepense), ragweed (common ragweed, Ambrosia elatior), barnyardgrass (Echinochloa crus-galli), sandbur (southern sandbur, Cenchrus echinatus), arrowleaf sida (Sida rhombifolia), ryegrass, Italian (Lolium multiflorum), dayflower, VA (Virginia (VA) dayflower, Commelina virginica), field bindweed (Convolvulus arvensis), morningglory (Ipomoea coccinea), horseweed (Conyza canadensis), kochia (Kochia scoparia), nutsedge, yellow (Cyperus esculentus) and hairy beggarticks (Bidenspilosa), were planted into a silt loam soil and treated preemergence with test chemicals formulated in a non-phytotoxic solvent mixture which included a surfactant.
# (§2) At the same time, plants selected from these crop and weed species and also waterhemp_RES1, (ALS & Triazine resistant common waterhemp, Amaranthus rudis), and waterhemp_RES2, (ALS & HPPD resistant common waterhemp, Amaranthus rudis) were planted in pots containing Redi-Earth® planting medium (Scotts Company, 14111 Scottslawn Road, Marysville, Ohio 43041) comprising spaghnum peat moss, vermiculite, wetting agent and starter nutrients were treated with postemergence applications of test chemicals formulated in the same manner. Plants ranged in height from 2 to 18 cm for postemergence treatments (1- to 4-leaf stage). Treated plants and controls were maintained in a greenhouse for 14 to 21 d, after which time all species were compared to controls and visually evaluated. Plant response ratings, summarized in Table E, are based on a scale of 0 to 100 where 0 is no effect and 100 is complete control. A dash (-) response means no test result.
# [2] = tested on: nutsedge, yellow (Cyperus esculentus); experiment: Test E pre-/postemergence greenhouse test; conditions: Preemergence
# Description: as §1, §2
# [3] = tested on: lambsquarters (Chenopodium album); experiment: Test E pre-/postemergence greenhouse test; conditions: Preemergence
# Description: as §1, §2
# [4] = tested on: common waterhemp (AMATU; Amaranthus rudis); experiment: Test J pre-/postemergence, mixtures of Cpd. No. 20 with (b15C2)
# Description: (§3) This test evaluated the effect of mixtures of Cpd. No. 20 with (b15C2) on several plant species. Seeds of plant species selected from corn (ZEAMD; Zea mays, cv. ‘Pioneer 1184’), soybean (GLXMA; Glycine max, cv. Pioneer 35T58), giant foxtail (SETFA; Setaria faberi), palmer amaranth (AMAPA; Amaranthus palmeri), common waterhemp (AMATU; Amaranthus rudis), mare's tail (ERICA; Conyza canadensis), and common ragweed (AMBEL; Ambrosia artemisiifolia) were planted in pots containing Tama Silt Loam soil and treated preemergence with a directed soil spray using test chemicals formulated in a non-phytotoxic solvent mixture which included a surfactant.
# (§4) At the same time, plants selected from these crop and weed species were planted in pots containing Redi-Earth® planting medium (Scotts Company, 14111 Scottslawn Road, Marysville, Ohio 43041) comprising spaghnum peat moss, vermiculite, wetting agent and starter nutrients and treated postemergence with test chemicals formulated in the same manner. Plants ranged in height from 2 to 10 cm and were in the one- to two-leaf stage for the postemergence treatment. Treated plants and untreated controls were maintained in a greenhouse for approximately 14-21 d, after which time all treated plants were compared to untreated controls and visually evaluated for injury. Plant response ratings, summarized in Tables J1 & J2, are based on a 0 to 100 scale where 0 is no effect and 100 is complete control. A dash (-) response means no test result. Test results are presented as a mean of 4 reps.
# [5] = tested on: common ragweed (AMBEL; Ambrosia artemisiifolia); experiment: as above
# Description: as §3, §4
# [6] = tested on: soybean (GLXMA; Glycine max, cv. Pioneer 35T58); experiment: as above
# Description: as §3, §4
# [7] = tested on: palmer amaranth (AMAPA; Amaranthus palmeri); experiment: as above
# Description: as §3, §4
# [8] = tested on: giant foxtail (SETFA; Setaria faberi); experiment: as above
# Description: as §3, §4
# [9] = tested on: mare's tail (ERICA; Conyza canadensis); experiment: as above
# Description: as §3, §4
# [10] = tested on: corn (ZEAMD; Zea mays, cv. ‘Pioneer 1184’); experiment: as above
# Description: as §3, §4
compound,measurement,setting,value
"Cc1ccc2ccc(C)c(-c3c(O)c(Cl)nn(C)c3=O)c2c1 [Cpd. No. 20, 6-chloro-4-(2,7-dimethyl-1-naphthalenyl)-5-hydroxy-2-methyl-3(2H)-pyridazinone]","Plant response rating, Arrowleaf Sida","[1]; Postemergence, 16 g ai/ha",60
same,"Plant response rating, Arrowleaf Sida","[1]; Postemergence, 31 g ai/ha",70
same,"Plant response rating, Arrowleaf Sida","[1]; Postemergence, 62 g ai/ha",70
same,"Plant response rating, Arrowleaf Sida","[1]; Postemergence, 125 g ai/ha",75
same,"Plant response rating, Arrowleaf Sida","[1]; Preemergence, 16 g ai/ha",90
same,"Plant response rating, Arrowleaf Sida","[1]; Preemergence, 31 g ai/ha",90
same,"Plant response rating, Arrowleaf Sida","[1]; Preemergence, 62 g ai/ha",80
same,"Plant response rating, Arrowleaf Sida","[1]; Preemergence, 125 g ai/ha",85
same,"Plant response rating, Nutsedge, Yellow",[2]; 16 g ai/ha,10
same,"Plant response rating, Nutsedge, Yellow",[2]; 31 g ai/ha,15
same,"Plant response rating, Nutsedge, Yellow",[2]; 62 g ai/ha,75
same,"Plant response rating, Nutsedge, Yellow",[2]; 125 g ai/ha,75
same,"Plant response rating, Lambsquarters",[3]; 16 g ai/ha,80
same,"Plant response rating, Lambsquarters",[3]; 31 g ai/ha,95
same,"Plant response rating, Lambsquarters",[3]; 62 g ai/ha,98
same,"Plant response rating, Lambsquarters",[3]; 125 g ai/ha,100
same,"AMATU plant response rating, 0 to 100 scale","[4]; postemergence, 8 g a.i./ha",55
same,"AMATU plant response rating, 0 to 100 scale","[4]; postemergence, 16 g a.i./ha",53
same,"AMATU plant response rating, 0 to 100 scale","[4]; postemergence, 31 g a.i./ha",71
same,"AMATU plant response rating, 0 to 100 scale","[4]; postemergence, 62 g a.i./ha",86
same,"AMATU plant response rating, 0 to 100 scale","[4]; preemergence, 8 g a.i./ha",0
same,"AMATU plant response rating, 0 to 100 scale","[4]; preemergence, 16 g a.i./ha",20
same,"AMATU plant response rating, 0 to 100 scale","[4]; preemergence, 31 g a.i./ha",29
same,"AMATU plant response rating, 0 to 100 scale","[4]; preemergence, 62 g a.i./ha",50
same,"AMBEL plant response rating, 0 to 100 scale","[5]; postemergence, 8 g a.i./ha",86
same,"AMBEL plant response rating, 0 to 100 scale","[5]; postemergence, 16 g a.i./ha",93
same,"AMBEL plant response rating, 0 to 100 scale","[5]; postemergence, 31 g a.i./ha",91
same,"AMBEL plant response rating, 0 to 100 scale","[5]; postemergence, 62 g a.i./ha",95
same,"AMBEL plant response rating, 0 to 100 scale","[5]; preemergence, 8 g a.i./ha",0
same,"AMBEL plant response rating, 0 to 100 scale","[5]; preemergence, 16 g a.i./ha",100
same,"AMBEL plant response rating, 0 to 100 scale","[5]; preemergence, 31 g a.i./ha",86
same,"AMBEL plant response rating, 0 to 100 scale","[5]; preemergence, 62 g a.i./ha",96
same,"GLXMA plant response rating, 0 to 100 scale","[6]; postemergence, 8 g a.i./ha",3
same,"GLXMA plant response rating, 0 to 100 scale","[6]; postemergence, 16 g a.i./ha",4
same,"GLXMA plant response rating, 0 to 100 scale","[6]; postemergence, 31 g a.i./ha",9
same,"GLXMA plant response rating, 0 to 100 scale","[6]; postemergence, 62 g a.i./ha",6
same,"GLXMA plant response rating, 0 to 100 scale","[6]; preemergence, 8 g a.i./ha",0
same,"GLXMA plant response rating, 0 to 100 scale","[6]; preemergence, 16 g a.i./ha",0
same,"GLXMA plant response rating, 0 to 100 scale","[6]; preemergence, 31 g a.i./ha",0
same,"GLXMA plant response rating, 0 to 100 scale","[6]; preemergence, 62 g a.i./ha",20
same,"AMAPA plant response rating, 0 to 100 scale","[7]; postemergence, 8 g a.i./ha",18
same,"AMAPA plant response rating, 0 to 100 scale","[7]; postemergence, 16 g a.i./ha",15
same,"AMAPA plant response rating, 0 to 100 scale","[7]; postemergence, 31 g a.i./ha",33
same,"AMAPA plant response rating, 0 to 100 scale","[7]; postemergence, 62 g a.i./ha",63
same,"AMAPA plant response rating, 0 to 100 scale","[7]; preemergence, 8 g a.i./ha",20
same,"AMAPA plant response rating, 0 to 100 scale","[7]; preemergence, 16 g a.i./ha",46
same,"AMAPA plant response rating, 0 to 100 scale","[7]; preemergence, 31 g a.i./ha",48
same,"AMAPA plant response rating, 0 to 100 scale","[7]; preemergence, 62 g a.i./ha",60
same,"SETFA plant response rating, 0 to 100 scale","[8]; postemergence, 8 g a.i./ha",34
same,"SETFA plant response rating, 0 to 100 scale","[8]; postemergence, 16 g a.i./ha",69
same,"SETFA plant response rating, 0 to 100 scale","[8]; postemergence, 31 g a.i./ha",75
same,"SETFA plant response rating, 0 to 100 scale","[8]; postemergence, 62 g a.i./ha",80
same,"SETFA plant response rating, 0 to 100 scale","[8]; preemergence, 8 g a.i./ha",15
same,"SETFA plant response rating, 0 to 100 scale","[8]; preemergence, 16 g a.i./ha",63
same,"SETFA plant response rating, 0 to 100 scale","[8]; preemergence, 31 g a.i./ha",78
same,"SETFA plant response rating, 0 to 100 scale","[8]; preemergence, 62 g a.i./ha",89
same,"ERICA plant response rating, 0 to 100 scale","[9]; postemergence, 8 g a.i./ha",85
same,"ERICA plant response rating, 0 to 100 scale","[9]; postemergence, 16 g a.i./ha",90
same,"ERICA plant response rating, 0 to 100 scale","[9]; postemergence, 31 g a.i./ha",90
same,"ERICA plant response rating, 0 to 100 scale","[9]; postemergence, 62 g a.i./ha",90
same,"ERICA plant response rating, 0 to 100 scale","[9]; preemergence, 8 g a.i./ha",58
same,"ERICA plant response rating, 0 to 100 scale","[9]; preemergence, 16 g a.i./ha",90
same,"ERICA plant response rating, 0 to 100 scale","[9]; preemergence, 31 g a.i./ha",94
same,"ERICA plant response rating, 0 to 100 scale","[9]; preemergence, 62 g a.i./ha",95
same,"ZEAMD plant response rating, 0 to 100 scale","[10]; postemergence, 8 g a.i./ha",0
same,"ZEAMD plant response rating, 0 to 100 scale","[10]; postemergence, 16 g a.i./ha",0
same,"ZEAMD plant response rating, 0 to 100 scale","[10]; postemergence, 31 g a.i./ha",0
same,"ZEAMD plant response rating, 0 to 100 scale","[10]; postemergence, 62 g a.i./ha",0
same,"ZEAMD plant response rating, 0 to 100 scale","[10]; preemergence, 8 g a.i./ha",0
same,"ZEAMD plant response rating, 0 to 100 scale","[10]; preemergence, 16 g a.i./ha",0
same,"ZEAMD plant response rating, 0 to 100 scale","[10]; preemergence, 31 g a.i./ha",0
same,"ZEAMD plant response rating, 0 to 100 scale","[10]; preemergence, 62 g a.i./ha",0
